Laboratory results published in patent US10238758B2, “Radiolabeled alpha-melanocyte stimulating hormone hybrid peptide for melanoma targeting” (STC.UNM, priority 2011, dated 2019).
“Also recorded” adds a separate entry of the source. Positions of bridges follow the written chain, without caps; N, C: chain ends. Non-standard residues stand in square brackets, D forms with d. Residues, ends and D or L forms follow the SMILES beside them.

Tests used:
[1] = target: T1, αvβ3 integrin receptor (Homo sapiens, UniProt P05106+P06756); conditions: M21 melanoma cells, vs RGD-Lys-(Arg11)CCMSH; cited from earlier work
T1 construct: Both MC1 and αvβ3 integrin receptors are over-expressed in M21 melanoma cells [23]; endogenous in cells; host or cells: M21 human melanoma cells

[2] = target: T2, MC1 receptor (Homo sapiens, UniProt Q01726); conditions: M21 melanoma cells, cited from earlier work
T2 construct: Both MC1 and αvβ3 integrin receptors are over-expressed in M21 melanoma cells [23]; endogenous in cells; host or cells: M21 human melanoma cells

[3] = target: T3, MC1 receptor (Mus musculus, UniProt Q01727); assay: MC1 receptor competitive binding with 125I-(Tyr2)-NDP-MSH in B16/F1 melanoma cells; design: species or system murine
T3 construct: host or cells: B16/F1 murine melanoma cells
From the text: Amino acid and resin were purchased from Advanced ChemTech Inc. (Louisville, Ky.) and Novabiochem (San Diego, Calif.). ^125I-Tyr^2-[Nle^4, DPhe^7]-α-MSH {^125I-(Tyr^2)-NDP-MSH} was obtained from PerkinElmer, Inc. (Shelton, Conn.) for MC1 receptor binding assay. ^99mTcO4^− was purchased from Cardinal Health (Albuquerque, N. Mex.) for peptide radiolabeling. All other chemicals used in this study were purchased from Thermo Fisher Scientific (Waltham, Mass.) and used without further purification. B16/F1 murine melanoma cells were obtained from American Type Culture Collection (Manassas, Va.).
The RAD-Lys-(Arg^11)CCMSH was synthesized according to our published procedure, purified by reverse phase-high performance liquid chromatography (RP-HPLC) and characterized by LC-mass spectroscopy. The IC50 value of RAD-Lys-(Arg^11)CCMSH for the MC1 receptor was determined in B16/F1 melanoma cells. Briefly, the B16/F1 cells were harvested and seeded into a 24-well cell culture plate (0.2×10^6 cells/well) and incubated at 37° C. overnight. […] The radioactivities associated with cells were measured in a Wallac 1480 automated gamma counter (PerkinElmer, NJ). The IC50 value of RAD-Lys-(Arg^11)CCMSH was calculated using the Prism software (GraphPad Software, La Jolla, Calif.).

[4] = Urinary metabolites by HPLC in a B16/F1 melanoma-bearing C57 mouse; format: in vivo; conditions: 2 h post-injection
Procedure: (§1) Approximately 6.7 MBq of ^99mTc-RAD-Lys-(Arg^11)CCMSH was injected in a B16/F1 melanoma-bearing C57 mouse for imaging and urine analysis. The mouse was euthanized at 2 h post-injection for small animal SPECT/CT (Nano-SPECT/CT®, Bioscan) imaging, as well as to collect urine for analyzing the metabolites. The 9-min CT imaging was immediately followed by the whole-body SPECT scan. The SPECT scans of 24 projections were acquired. Reconstructed SPECT and CT data were visualized and co-registered using InVivoScope (Bioscan, Washington D.C.). The collected urine sample was centrifuged at 16,000 g for 5 min before the HPLC analysis. Thereafter, aliquots of the urine were injected into the HPLC. A 20-minute gradient of 16-26% acetonitrile/20 mM HCl with a flow rate of 1 mL/min was used for urine analysis.

[5] = test system: B16/F1 melanoma cells; assay: Cellular internalization and efflux in B16/F1 melanoma cells; format: cell-based, murine; conditions: for activity internalized: 25° C.
Procedure: RAD-Lys-(Arg^11)CCMSH was radiolabeled with ^99mTc using the method described previously. The radiolabeled peptide was purified to single species by Waters RP-HPLC (Milford, Mass.) on a Grace Vydac C-18 reverse phase analytic column (Deerfield, Ill.) using a 20 min gradient of 16-26% acetonitrile in 20 mM HCl aqueous solution at a flow rate of 1 mL/min. Cellular internalization and efflux of ^99mTc-RAD-Lys-(Arg^11)CCMSH were evaluated in B16/F1 melanoma cells. Briefly, the B16/F1 cells in 24-well cell culture plates were incubated at 25° C. for 20, 40, 60, 90 and 120 min (n=4) in the presence of approximately 200,000 cpm of HPLC purified ^99mTc-RAD-Lys-(Arg^11)CCMSH. After incubation, the reaction medium was aspirated and the cells were rinsed twice with 0.5 mL of ice-cold pH 7.4, 0.2% BSA/0.01 M PBS. Cellular internalization of ^99mTc-RAD-Lys-(Arg^11) CCMSH was assessed by washing the cells with acidic buffer [40 mM sodium acetate (pH 4.5) containing 0.9% NaCl and 0.2% BSA] to remove the membrane-bound radioactivity. The remaining internalized radioactivity was obtained by lysing the cells with 0.5 mL of 1 N NaOH for 5 min. Membrane-bound and internalized ^99mTc activities were counted in a gamma counter. Cellular efflux of ^99mTc-RAD-Lys-(Arg^11)CCMSH was determined by incubating the B16/F1 cells with ^99mTc-RAD-Lys-(Arg^11)CCMSH for 2 h at 25° C., removing non-specific-bound radioactivity with 2×0.5 mL of ice-cold pH 7.4, 0.2% BSA/0.01 M PBS rinse, and monitoring radioactivity released into cell culture medium. At time points of 20, 40, 60, 90 and 120 min, the radioactivities in medium, on cell surface and in cells were separately collected and counted in a gamma counter.

[6] = test system: B16/F1 melanoma-bearing C57 mouse; assay: SPECT/CT melanoma imaging in a B16/F1 melanoma-bearing C57 mouse; format: in vivo; conditions: 2 h post-injection
Procedure: as §1

[7] = test system: B16/F1 melanoma-bearing C57 mice; assay: Biodistribution in B16/F1 melanoma-bearing C57 mice; format: in vivo
Procedure: All the animal studies were conducted in compliance with Institutional Animal Care and Use Committee approval. The biodistribution of ^99mTc-RAD-Lys-(Arg^11)CCMSH was determined in B16/F1 melanoma-bearing C57 mice (Harlan, Indianapolis, Ind.). C57 mice were subcutaneously inoculated on the right flank with 1×10^6 B16/F1 cells. Tumor weights reached approximately 0.2 g at 10 days post cell inoculation. Each melanoma-bearing mouse was injected with 0.037 MBq of ^99mTc-RAD-Lys-(Arg^11)CCMSH via the tail vein. Groups of 5 mice were sacrificed at 0.5, 2, 4 and 24 h post-injection, and tumors and organs of interest were harvested, weighed and counted. Blood values were taken as 6.5% of the whole-body weight.
The specificity of tumor uptake was determined at 2 h post-injection by co-injecting ^99mTc-RAD-Lys-(Arg^11)CCMSH with 10 μg (6.1 nmol) of unlabeled NDP-MSH. L-lysine co-injection is effective in decreasing the renal uptake of radiolabeled α-MSH peptides. To determine the effect of L-lysine co-injection on the renal uptake of ^99mTc-RAD-Lys-(Arg^11)CCMSH, a group of 5 mice were injected with a mixture of 0.037 MBq of ^99mTc-RAD-Lys-(Arg^11)CCMSH and 12 mg of L-lysine. The mice were sacrificed at 2 h post-injection, and tumors and organs of interest were harvested, weighed and counted in a gamma counter.
Statistical analysis was performed using the Student's t-test for unpaired data to determine the significance of differences in tumor and kidney uptake between the groups in the biodistribution studies with/without peptide blockade or with/without L-lysine co-injection. Differences at the 95% confidence level (p<0.05) were considered significant.

T2 sequence (Q01726 whole entry): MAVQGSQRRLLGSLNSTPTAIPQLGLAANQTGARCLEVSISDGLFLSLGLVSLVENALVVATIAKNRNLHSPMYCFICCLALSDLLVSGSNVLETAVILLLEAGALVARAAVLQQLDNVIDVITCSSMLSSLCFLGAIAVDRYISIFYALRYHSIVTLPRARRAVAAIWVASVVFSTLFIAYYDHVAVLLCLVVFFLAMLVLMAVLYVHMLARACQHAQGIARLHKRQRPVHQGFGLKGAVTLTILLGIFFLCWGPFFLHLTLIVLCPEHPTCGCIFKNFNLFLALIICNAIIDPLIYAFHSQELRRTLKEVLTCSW
T3 sequence (Q01727 whole entry): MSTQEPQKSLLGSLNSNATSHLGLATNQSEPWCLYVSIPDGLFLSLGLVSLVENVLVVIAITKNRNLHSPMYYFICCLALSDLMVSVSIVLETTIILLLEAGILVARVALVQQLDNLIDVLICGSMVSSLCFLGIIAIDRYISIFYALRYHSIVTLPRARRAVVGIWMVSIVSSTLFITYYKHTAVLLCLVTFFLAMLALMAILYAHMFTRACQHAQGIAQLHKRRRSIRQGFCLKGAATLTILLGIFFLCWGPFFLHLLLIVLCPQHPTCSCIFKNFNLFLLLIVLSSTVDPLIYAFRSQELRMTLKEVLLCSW
T1 sequence (P06756 31-889 limits assumed): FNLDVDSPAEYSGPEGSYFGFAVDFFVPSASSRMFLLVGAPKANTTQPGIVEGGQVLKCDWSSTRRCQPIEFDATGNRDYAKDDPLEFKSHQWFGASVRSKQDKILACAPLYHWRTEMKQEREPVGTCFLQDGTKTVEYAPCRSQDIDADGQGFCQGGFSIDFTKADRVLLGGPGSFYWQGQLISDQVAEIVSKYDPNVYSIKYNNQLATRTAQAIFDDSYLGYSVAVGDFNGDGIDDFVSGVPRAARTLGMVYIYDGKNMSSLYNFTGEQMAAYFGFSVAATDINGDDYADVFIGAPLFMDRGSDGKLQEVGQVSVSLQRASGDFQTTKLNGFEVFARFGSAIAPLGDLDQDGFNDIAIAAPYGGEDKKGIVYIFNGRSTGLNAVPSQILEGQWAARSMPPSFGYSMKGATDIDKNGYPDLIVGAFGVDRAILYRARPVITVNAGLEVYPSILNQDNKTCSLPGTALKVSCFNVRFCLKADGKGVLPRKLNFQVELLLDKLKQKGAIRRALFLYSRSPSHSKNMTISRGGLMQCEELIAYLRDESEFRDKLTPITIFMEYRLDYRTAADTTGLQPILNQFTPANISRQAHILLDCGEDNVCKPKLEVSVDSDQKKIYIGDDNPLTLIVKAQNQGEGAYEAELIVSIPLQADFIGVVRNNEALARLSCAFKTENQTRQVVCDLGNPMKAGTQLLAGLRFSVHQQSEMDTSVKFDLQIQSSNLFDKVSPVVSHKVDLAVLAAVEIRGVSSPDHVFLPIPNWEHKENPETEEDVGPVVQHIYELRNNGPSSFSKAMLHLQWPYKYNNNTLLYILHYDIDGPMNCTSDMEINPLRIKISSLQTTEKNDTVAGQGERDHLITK
T1 sequence (P06756 891-1048 limits assumed): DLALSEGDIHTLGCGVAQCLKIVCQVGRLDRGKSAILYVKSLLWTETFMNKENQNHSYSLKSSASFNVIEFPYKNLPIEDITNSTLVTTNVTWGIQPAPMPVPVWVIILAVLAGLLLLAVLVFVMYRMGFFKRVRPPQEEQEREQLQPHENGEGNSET
T1 sequence (P05106 27-788): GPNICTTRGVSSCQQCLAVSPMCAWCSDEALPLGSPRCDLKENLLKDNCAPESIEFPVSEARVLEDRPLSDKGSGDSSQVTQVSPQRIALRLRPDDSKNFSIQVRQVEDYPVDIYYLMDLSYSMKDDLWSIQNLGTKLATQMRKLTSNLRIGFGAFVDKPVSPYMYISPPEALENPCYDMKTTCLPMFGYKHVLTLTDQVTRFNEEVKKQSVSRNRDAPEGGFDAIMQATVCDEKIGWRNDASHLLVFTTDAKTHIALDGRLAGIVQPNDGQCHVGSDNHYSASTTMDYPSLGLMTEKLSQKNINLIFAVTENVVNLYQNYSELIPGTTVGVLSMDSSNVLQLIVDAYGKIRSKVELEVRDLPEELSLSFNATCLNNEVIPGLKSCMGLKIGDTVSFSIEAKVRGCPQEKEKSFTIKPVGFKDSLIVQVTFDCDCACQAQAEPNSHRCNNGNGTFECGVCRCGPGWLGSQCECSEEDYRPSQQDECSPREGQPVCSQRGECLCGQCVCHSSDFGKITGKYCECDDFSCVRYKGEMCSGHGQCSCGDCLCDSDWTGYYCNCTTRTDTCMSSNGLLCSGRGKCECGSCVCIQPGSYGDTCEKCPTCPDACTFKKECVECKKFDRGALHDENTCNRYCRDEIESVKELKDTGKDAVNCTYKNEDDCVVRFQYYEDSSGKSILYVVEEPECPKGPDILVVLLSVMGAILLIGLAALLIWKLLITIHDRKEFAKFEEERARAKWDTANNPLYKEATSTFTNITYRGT

## CC(C)[C@H](NC(=O)[C@@H]1CCCN1C(=O)[C@H](CCCNC(=N)N)NC(=O)[C@H](CS)NC(=O)[C@H](Cc1c[nH]c2ccccc12)NC(=O)[C@H](CCCNC(=N)N)NC(=O)[C@@H](Cc1ccccc1)NC(=O)[C@H](Cc1c[nH]cn1)NC(=O)[C@H](CCC(=O)O)NC(=O)[C@H](CS)NC(=O)[C@H](CS)NC(=O)[C@H](CCCCN)NC(=O)[C@@H]1CC(=O)N[C@@H](CCCNC(=N)N)C(=O)N[C@@H](C)C(=O)N[C@@H](CC(=O)O)C(=O)N[C@H](Cc2ccc(O)cc2)C(=O)N1)C(N)=O [RAD-Lys-(Arg^11)CCMSH] (RAD[dY]DKCCEH[dF]RWCRPV-NH2; lactam N-5 (inferred))
[1]
  decrease of αvβ3 integrin receptor binding affinity by switch from RGD to RAD: 248 fold
[2]; vs RGD-Lys-(Arg11)CCMSH
  increase of MC1 receptor binding affinity by switch from RGD to RAD: 6.7 fold

## CC(C)[C@H](NC(=O)[C@@H]1CCCN1C(=O)[C@H](CCCNC(=N)N)NC(=O)[C@H](CS)NC(=O)[C@H](Cc1c[nH]c2ccccc12)NC(=O)[C@H](CCCNC(=N)N)NC(=O)[C@@H](Cc1ccccc1)NC(=O)[C@H](Cc1c[nH]cn1)NC(=O)[C@H](CCC(=O)O)NC(=O)[C@H](CS)NC(=O)[C@H](CS)NC(=O)[C@H](CCCCN)NC(=O)[C@@H]1CC(=O)N[C@@H](CCCNC(=N)N)C(=O)N[C@@H](C)C(=O)N[C@@H](CC(=O)O)C(=O)N[C@H](Cc2ccc(O)cc2)C(=O)N1)C(N)=O [^99mTc-RAD-Lys-(Arg^11)CCMSH, metal not drawn] (RAD[dY]DKCCEH[dF]RWCRPV-NH2; lactam N-5)
[3]
  IC50: 0.26 nM
[4]
  remained intact in urine: Approximately 82%
[4]; urine
  transformed to a more lipophilic metabolite: 18%
[5]; 20 min post incubation
  activity internalized: 59.20±5.10%
[5]; B16/F1 melanoma cells
  cellular internalization and retention, in words: rapid cellular internalization and extended cellular retention
[5]; after 2 h incubation
  activity internalized: 78.24±1.13%
[6]
  visualization of melanoma lesions by SPECT/CT: visualized clearly; also recorded: clearly visualized
[7]; 10 μg (6.1 nmol) non-radiolabeled NDP-MSH co-injection, 2 h post-injection, p<0.01
  tumor uptake with NDP-MSH co-injection as % of tumor uptake without: 7.8%
[7]; 0.5 h post-injection
  liver uptake as % of liver uptake of 99mTc-RGD-Lys-(Arg11)CCMSH: 66.2%
  renal uptake relative to 99mTc-RGD-Lys-(Arg11)CCMSH: 1.84 times
  tumor uptake relative to 99mTc-RGD-Lys-(Arg11)CCMSH: 1.51 times
[7]; 2 h post-injection
  effect of L-lysine co-injection on tumor uptake: without affecting the tumor uptake
  liver uptake as % of liver uptake of 99mTc-RGD-Lys-(Arg11)CCMSH: 61.9%
  renal uptake relative to 99mTc-RGD-Lys-(Arg11)CCMSH: 1.39 times
  tumor uptake relative to 99mTc-RGD-Lys-(Arg11)CCMSH: 1.34 times
[7]; 4 h post-injection
  renal uptake relative to 99mTc-RGD-Lys-(Arg11)CCMSH: 1.42 times
  tumor uptake relative to 99mTc-RGD-Lys-(Arg11)CCMSH: 1.43 times
[7]; 24 h post-injection
  liver uptake as % of liver uptake of 99mTc-RGD-Lys-(Arg11)CCMSH: 72.3%
[7]; L-lysine co-injection
  decrease of renal uptake by L-lysine co-injection: 46%
[7]; NDP-MSH co-injection
  effect of peptide blockade co-injection on renal uptake: did not reduce the renal uptake

## RGD-Lys-(Arg^11)CCMSH [cyclic RGD {Arg-Gly-Asp-DTyr-Asp} motif conjugated to [Cys3,4,10, D-Phe7, Arg11]α-MSH3-13 peptide via a lysine linker, reference compound]
[2]; from ref. 23, read-out: MC1 receptor binding affinity
  IC50: 2 nM
